Test results: publication PMC6216040, “Repurposing of an old drug: In vitro and in vivo efficacies of buparvaquone against Echinococcus multilocularis” (International Journal for Parasitology: Drugs and Drug …, 2018)

Tested on: E. multilocularis metacestodes
Test: PGI-assay: drug-induced damage on in vitro cultured metacestodes (Pathogen Box screening cascade and EC50)
Format: cell-based, Echinococcus multilocularis
Settings: for PGI release, % of the Tx-100 control, 5d / PGI release, % of the Tx-100 control, 12d: 10 µM, singlets; for PGI release, % of the Tx-100 control, 5d / PGI release, % of Tx-100 control, average, 5d: 5 days of incubation; for PGI release, % of the Tx-100 control, 12d / PGI release, % of Tx-100 control, average, 12d: 12 days of incubation; for activity in the screen at 10 μM (confirmed in triplicates, >20% relative PGI release): 5 and 12 days
[1] = confirmatory screening at 10 µM in triplicates, values as % of Tx-100 control

SMILES	PGI release, % of the Tx-100 control, 5d	PGI release, % of the Tx-100 control, 12d	other results
CCCNC(=O)N1CCC2(CC1)CC(=O)c1cc(C)ccc1O2 [MMV085230]	-0.40%	-0.0743%	–
N#Cc1ccc(-c2cnc(N)c(-c3ccc(C(N)=O)cc3)n2)cc1 [MMV085499]	7.58%	0.90%	–
CCOC(=O)NC(=O)c1ccsc1NC(=O)c1nc2ccccc2s1 [MMV090930]	11.85%	28.09%	PGI release, % of Tx-100 control, average, 5d (1 µM, triplicates): 2.46%; PGI release, % of Tx-100 control, average, 12d (1 µM, triplicates): 6.26%; activity in the screen at 10 μM (confirmed in triplicates, >20% relative PGI release): active; PGI release, % of Tx-100 control, average, 5d [1]: 13.69%; PGI release, % of Tx-100 control, average, 12d [1]: 46.13%
O=C(Nc1nnc(-c2ccc(Cl)cc2)o1)c1cccc(C(F)(F)F)c1 [MMV102872]	32.35%	28.26%	PGI release, % of Tx-100 control, average, 5d [1]: -0.31%; PGI release, % of Tx-100 control, average, 12d [1]: -1.19%
CCC(C)NC(=O)c1ccc(NC(=O)C2(c3ccccc3)CCCC2)cc1 (stereo not shown) [MMV146306]	-1.42%	-5.77%	–
CCOC(=O)c1c(NC(=O)c2c(F)c(F)c(F)c(F)c2F)sc(C(N)=O)c1C [MMV153413]	1.93%	9.70%	–
Cc1cc(Cl)ccc1NC(=O)CCc1ccc(S(=O)(=O)NCC(C)C)cc1 [MMV161996]	-0.05%	0.10%	–
CNC(=O)C1Cc2ccccc2N1C(=O)Cc1ccc(F)cc1 (stereo not shown) [MMV188296]	-0.45%	-0.28%	–
COc1ccc(C2(C(=O)Nc3ccc(Br)cc3)CCCC2)cc1 [MMV200748]	-1.03%	-1.33%	–
COc1ccc(OC(C)C(=O)Nc2ccc(Cl)cc2C)cc1 (stereo not shown) [MMV202458]	0.0146%	6.22%	–
CCC(=O)Nc1ccccc1C(=O)Nc1ccccn1 [MMV202553]	-0.91%	0.26%	–
COc1cccc(NC(=O)c2c(NC(=O)c3cccnc3)sc3c2CCC3)c1 [MMV228911]	6.25%	18.91%	–
COc1cccc(-n2nnnc2S(C)(=O)=O)c1 [MMV272144]	-0.69%	0.11%	–
COc1cccc(-c2cc3c(Nc4cccnc4)nccc3[nH]2)c1 [MMV392832]	0.24%	-1.65%	–
CN1CCN(c2nccc3[nH]c(-c4cccc(F)c4)cc23)CC1 [MMV393144]	-0.30%	0.40%	–
Cc1cc(=O)[nH]c(-n2nc(C)cc2C)n1 [MMV393995]	-1.49%	-4.16%	–
CCc1nc2ccc(C(=O)NCc3ccc4c(c3)OCO4)cn2c1N(C)Cc1cccs1 [MMV407539]	-0.20%	24.66%	PGI release, % of Tx-100 control, average, 5d [1]: -1.01%; PGI release, % of Tx-100 control, average, 12d [1]: 3.14%
CCOc1ccccc1NC(C)C(=O)Nc1cc(C(F)(F)F)ccc1N1CCOCC1 (stereo not shown) [MMV407834]	-0.40%	-0.68%	–
COC(=O)c1c(NC(=O)c2c(F)c(F)c(F)c(F)c2F)sc2c1CCCCC2 [MMV461553]	3.92%	19.16%	–
CC(C)(C)c1cnc(NC(=O)c2ccccc2O)s1 [MMV495543]	-1.40%	-5.38%	–
CS(=O)(=O)Cc1nc2ccccc2oc1=O [MMV553002]	-3.93%	-1.57%	–
c1ccc(-c2cc(N3CCCCC3)c3ccccc3n2)nc1 [MMV560185]	0.52%	-0.29%	–
CCN(CC)S(=O)(=O)c1ccc(C(=O)Nc2cc(C)nn2-c2nc(C)c(C)c(=O)[nH]2)cc1 [MMV595321]	-0.14%	-1.13%	–
CCC(Sc1nc2ccccc2o1)C(=O)Nc1nnc(C)s1 (stereo not shown) [MMV611037]	-0.81%	-1.11%	–
O=C(NCCN1CCCC1)c1cc(NCCN2CCOCC2)nc2ccc(Cl)cc12 [MMV634140]	0.01%	-0.0759%	–
CN1CCCC1CCO[C@](C)(c1ccccc1)c1ccc(Cl)cc1 (stereo partly shown) [MMV637229]	4.53%	10.67%	–

SMILES	PGI release, % of the Tx-100 control, 5d	PGI release, % of the Tx-100 control, 12d	other results
O=C(Nc1ccc2c(c1)B(O)OC2)c1ccccc1C(F)(F)F [MMV652003]	1.72%	7.32%	–
Cc1nc(-c2ccccn2)nc(N(C)CCc2ccccc2)c1Cl [MMV658988]	22.86%	30.08%	PGI release, % of Tx-100 control, average, 5d [1]: 4.97%; PGI release, % of Tx-100 control, average, 12d [1]: 10.18%
Cc1nc(-c2ccccn2)nc(NCCc2ccc(S(C)(=O)=O)cc2)c1Cl [MMV658993]	-0.19%	1.18%	–
Cc1nc(-c2ccccn2)nc(N2CCC(Cc3ccccc3)C2)c1Cl (stereo not shown) [MMV659004]	11.75%	58.47%	PGI release, % of Tx-100 control, average, 5d [1]: 2.44%; PGI release, % of Tx-100 control, average, 12d [1]: 11.08%
FC(F)(F)c1cc(NCCc2ccccc2)nc(-c2ccccn2)n1 [MMV659010]	0.61%	3.66%	–
Brc1cncc(-c2cc(NCCCn3ccnc3)nc(-c3ccccc3)n2)c1 [MMV661713]	-3.38%	-0.86%	–
Clc1cccc(C(c2ccc(CN3CCNCC3)cc2)n2ccnc2)c1 (stereo not shown) [MMV663250]	0.31%	-0.31%	–
O=C(NCCN1CCCC1)c1cc(NCCCCN2CCC(F)(F)CC2)nc2ccc(Cl)cc12 [MMV667494]	-0.60%	-1.11%	–
Nc1ncc(-c2ccc(C(F)(F)F)nc2)cc1-c1ccc(C(F)(F)F)nc1 [MMV668727]	-0.66%	-0.51%	–
COc1ccc(OC)c(NCc2ccc3nc(N)nc(N)c3c2Cl)c1 [MMV675968]	-0.10%	8.05%	–
CC(C)(C)c1ccc(N[C@@H]2CCCC[C@H]2NC(=O)c2ccco2)cc1 [MMV675969]	1.02%	-2.49%	–
COc1ccc(-c2nn(C(C)C)c3ncnc(N)c23)cc1OC [MMV675993]	-5.16%	-3.42%	–
Clc1ccc(-n2cc(COc3ccnc4ccccc34)nn2)cc1 [MMV675994]	-6.67%	46.84%	PGI release, % of Tx-100 control, average, 5d (1 µM, triplicates): -4.24%; PGI release, % of Tx-100 control, average, 12d (1 µM, triplicates): -12.79%; activity in the screen at 10 μM (confirmed in triplicates, >20% relative PGI release): active; PGI release, % of Tx-100 control, average, 5d [1]: 26.02%; PGI release, % of Tx-100 control, average, 12d [1]: 73.87%
COc1ccc(N(CCc2cccc(C)n2)C(C)=O)cc1 [MMV675995]	1.72%	1.78%	–
COc1ccc(N(CCc2cccc(C)n2)C(=O)C2CCCCC2)cc1 [MMV675996]	0.13%	-0.16%	–
N#CCN(CCCCN1CCN(c2ccc(F)cc2)CC1)C(=O)OCc1ccccc1 [MMV675997]	-0.27%	-1.46%	–
COc1ccc(C(=N)N)cc1-c1cn(-c2ccc(C(=N)N)cc2)nn1 [MMV675998]	-0.22%	0.24%	–
O=C(Nc1c(O)cccc1-c1nc2c(C(=O)O)cccc2o1)c1cc(-c2ccccc2)on1 [MMV676008]	-0.73%	-0.73%	–
Clc1ccc(Cl)c(CO[C@H]2CCCC[C@@H]2n2ccnc2)c1 [MMV676048]	1.62%	0.30%	–
CS(=O)(=O)N1CCC(Cn2nc(Cc3cccc4ccccc34)c3c(N)ncnc32)CC1 [MMV676050]	0.49%	0.36%	–
COc1cc(NC(=O)Cc2nn(C)c(=O)c3ccccc23)ccc1Cl [MMV676053]	-2.85%	-1.21%	–
CC(C)(C)OC(=O)N1CCN(c2cc(-c3ccc(Oc4ccccc4)cc3)n[nH]2)CC1 [MMV676057]	-3.83%	2.21%	–
CCCCc1ccc(NC(=O)Nc2ccc(O[C@H]3CCCC[C@@H]3N(C)c3ccccc3)c(F)c2)cc1 [MMV676063]	2.73%	76.51%	PGI release, % of Tx-100 control, average, 5d [1]: -1.39%; PGI release, % of Tx-100 control, average, 12d [1]: -1.33%
CC(=O)N(CCN(C(=O)c1ccc(F)cc1)c1ccccc1)c1ccccc1 [MMV676064]	-0.20%	0.0545%	–
Clc1cccc(CO[C@H]2CCc3ccccc3[C@@H]2n2ccnn2)c1 [MMV676159]	-0.04%	-0.65%	–
c1ccc(Oc2ccc(-c3cc(CN4CCOCC4)[nH]n3)cc2)cc1 [MMV676161]	-0.68%	-1.33%	–
